Values of other authors, collected in article PMC7904743, “WIDOCK: a reactive docking protocol for virtual screening of covalent inhibitors” (Journal of Computer-Aided Molecular Design, 2021).
Where two headings read alike, the source gives them in different places.

Tests used:
OTUB2 = conditions: experimental actives if % labeling higher than 50%, cited from earlier work
NUDT7 = conditions: protein labeling at 200 μM; experimental actives if % labeling higher than 50%; cited from earlier work
[1] = thiol reactivity, cited from earlier work
[2] = natural log of average rate constant k
[3] = natural logarithm of average rate constant
[4] = natural log of average kinetic rate constant
[5] = natural log of average rate constant

Row | SMILES | OTUB2 % labeling (OTUB2) | NUDT7 % labeling (NUDT7) | ln(avg k) [1, 2] | ln(avg k) [1, 3] | OTUB2 % labeling (OTUB2; OTUB2 protein labeling) | ln(avg k) [1, 4] | ln(avg k) [1, 5]
1 | O=C(CCl)Nc1ccc(Cl)cc1C(=O)O [PCM-0102127, O=C(CCl)Nc1ccc(Cl)cc1C(=O)O] | 10% | 0% | -16.749 | -16.749 | – | – | –
2 | CC1(c2ccccc2)NC(=O)N(NC(=O)CCl)C1=O (centres unmarked) [PCM-0102428, CC1(c2ccccc2)NC(=O)N(NC(=O)CCl)C1=O] | 0% | 0% | -17.653 | -17.653 | – | – | –
3 | O=C1CN(C(=O)CCl)CCN1 [PCM-0103008, O=C1CN(C(=O)CCl)CCN1] | – | 0% | – | – | 0% | -15.775 | -15.775
4 | CC1Cc2cc(S(N)(=O)=O)ccc2N1C(=O)CCl (centres unmarked) [PCM-0102207, CC1Cc2cc(S(N)(=O)=O)ccc2N1C(=O)CCl] | 0% | 7% | -15.427 | -15.427 | – | – | –
5 | Cc1cccc(N2CCN(C(=O)CCl)CC2)c1 [PCM-0102185, Cc1cccc(N2CCN(C(=O)CCl)CC2)c1] | 0% | 5% | -15.479 | -15.479 | – | – | –
6 | O=C(Nc1ccccc1)NN(C(=O)CCl)c1ccccc1 [PCM-0102957, O=C(Nc1ccccc1)NN(C(=O)CCl)c1ccccc1] | – | 100% | – | – | 0% | -15.066 | -15.066
7 | O=C(CCl)Nc1nc(-c2c[nH]c3ccccc23)cs1 [PCM-0102233, O=C(CCl)Nc1nc(-c2c[nH]c3ccccc23)cs1] | 25% | 26% | -15.707 | -15.707 | – | – | –
8 | CC(NC(=O)CCl)C(=O)N1CCCCC1 (centres unmarked) [PCM-0102598, CC(NC(=O)CCl)C(=O)N1CCCCC1] | 0% | 0% | -16.794 | -16.794 | – | – | –
9 | Cc1ccc(CNC(=O)CCl)cc1F [PCM-0102959, Cc1ccc(CNC(=O)CCl)cc1F] | – | 0% | – | – | 50% | -16.344 | -16.344
10 | CC(NC(=O)CCl)c1ccc(F)cc1 (centres unmarked) [PCM-0102228, CC(NC(=O)CCl)c1ccc(F)cc1] | 20% | 7% | -15.820 | -15.820 | – | – | –
11 | CC(NC(=O)CCl)c1ccc(Br)cc1 (centres unmarked) [PCM-0102374, CC(NC(=O)CCl)c1ccc(Br)cc1] | 34% | 23% | -16.325 | -16.325 | – | – | –
12 | O=C(CCl)N(C1CC1)C1CCS(=O)(=O)C1 (centres unmarked) [PCM-0102832, O=C(CCl)N(C1CC1)C1CCS(=O)(=O)C1] | – | 0% | – | – | 43% | -16.200 | -16.200
13 | Cc1ccc(C(C)NC(=O)CCl)cc1C (centres unmarked) [PCM-0102270, Cc1ccc(C(C)NC(=O)CCl)cc1C] | 51% | 0% | -16.558 | -16.558 | – | – | –
14 | O=C(CCl)N1CCN(Cc2cccc3ccccc23)CC1 [PCM-0102287, O=C(CCl)N1CCN(Cc2cccc3ccccc23)CC1] | 29% | 0% | -15.635 | -15.635 | – | – | –
15 | CCOC(=O)C1CCN(C(=O)CCl)CC1 [PCM-0102656, CCOC(=O)C1CCN(C(=O)CCl)CC1] | 0% | 0% | -15.523 | -15.523 | – | – | –
16 | O=C(CCl)Nc1ccccc1Cl [PCM-0102152, O=C(CCl)Nc1ccccc1Cl] | 20% | 0% | -16.303 | -16.303 | – | – | –
17 | O=C(CCl)Nc1ccc2c(c1)CCC2 [PCM-0102662, O=C(CCl)Nc1ccc2c(c1)CCC2] | 14% | 12% | -16.202 | -16.202 | – | – | –
